Measurements: US20110130466A1 (priority 2009, published 2011)
Read-outs that look alike come from different tables or passages of the source.

Tests used:
[1] = test system: Bcl-2 and Bcl-xL expression; conditions: parallel to downregulation of pro-apoptotic Bad and Bax; Youdim et al. 2003; cited from earlier work
[2] = test system: apoptotic cell death initiated by mitochondria; conditions: cell culture, Youdim et al. 2001; Akao et al. 2002; cited from earlier work
[3] = test system: PSP patients; conditions: patient 5, after 6 months of treatment with rasagiline (FIG. 2)
Protocol: (§1) The following clinical factors were analyzed: • 1. Patients and relatives received a protocol to document the frequency of falls. • 2. 12 of the patients were analyzed using posturographic measurements. • 3. Depression was evaluated using clinical criteria (DSM-IV). • 4. Eye movements were orthoptically evaluated (in some cases an electronystagmogram was performed). • 5. Dysarthria was investigated using the Bogenhausener dysarthria scale (BoDys) (ranges from 4=normal until 0=anarthria). • 6. Dysphagia was clinically documented and the introduction of a percutaneous feeding tube (PEG) was recorded. • 7. Incidence of pneumonia was recorded. • 8. Impulse control disorder and hallucinations were recorded. • 9. Possible side effects were recorded. • 10.

[4] = test system: animal models of closed head trauma; conditions: global focal ischemia, MPTP-induced neurotoxicity, ALS transgenic model, 6-OHDA model; cited from earlier work
[5] = test system: PSP patients; conditions: for dysphagia, need for a PEG: PSP patients without PEG at initiation, observation phase; for frequency of falls, MW (mean): mean of documented PSP patients, baseline 23.059
Protocol: Eight men and nine women were treated.
as §1

[6] = test system: patients with PSP; conditions: 1 mg/day
Protocol: A clinical trial is performed according to the following guidelines: [table]

[7] = PSP patients, rasagiline 1 mg/day

Which results are given for C#CCN[C@@H]1CCc2ccccc21 [rasagiline, R(+)-N-propargyl-1-aminoindan]?
expression of anti-apoptotic Bcl-2 and Bcl-xL [1]: induces increase; suppression of apoptotic cell death [2]: potently suppresses apoptotic cell death; posturographic measurement, before vs after treatment [3]: shows an improvement; neuroprotection [4]: Neuroprotection by rasagiline was achieved; dysarthria, mean on the BoDys scale ([5]; 10 patients, during observation time, from a mean of 2.5±0.5, 4=normal, 0=anarthria): 2.7±0.5; deaths during the observation time ([5]; 17 PSP patients, patients 9 and 4, both after treatment had ended): Two patients died; dysphagia, need for a PEG [5]: none of the other patients required a PEG; dysphagia, need for a PEG ([5]; listed as Rasagiline): effective in improving or slowing progression of dysphagia; period of treatment in which the reduction of the frequency of falls mainly took place [5, 7]: ≤ 7 months; postural instability / number of falls (in words) [5, 7]: improvement in postural instability was evident within the first 7 months; postural instability / number of falls (in words) ([5]; PSP patients, rasagiline 1 mg/day, listed as Rasagiline): effective in reducing the number of falls; frequency of falls, MW (mean) ([5]; 1 Month of rasagiline 1 mg/day): 19.824 falls/week; frequency of falls, MW (mean) ([5]; 2 Months of rasagiline 1 mg/day): 20.692 falls/week; frequency of falls, MW (mean) ([5]; 3 Months of rasagiline 1 mg/day): 20.833 falls/week; frequency of falls, MW (mean) ([5]; 4 Months of rasagiline 1 mg/day): 20.667 falls/week; frequency of falls, MW (mean) ([5]; 5 Months of rasagiline 1 mg/day): 20.917 falls/week; frequency of falls, MW (mean) ([5]; 6 Months of rasagiline 1 mg/day): 19.923 falls/week; frequency of falls, MW (mean) ([5]; 7 Months of rasagiline 1 mg/day): 21.917 falls/week; frequency of falls, MW (mean) ([5]; 8 Months of rasagiline 1 mg/day): 23.5 falls/week; frequency of falls, MW (mean) ([5]; 9 Months of rasagiline 1 mg/day): 22.818 falls/week; frequency of falls, MW (mean) ([5]; 10 Months of rasagiline 1 mg/day): 25.1 falls/week; frequency of falls, MW (mean) ([5]; 11 Months of rasagiline 1 mg/day): 25.889 falls/week; frequency of falls, MW (mean) ([5]; 12 Months of rasagiline 1 mg/day): 24.6 falls/week; impulse control disorder ([5]; one patient with impulse control disorder at initiation): not influenced by treatment with rasagiline; treating physician's assessment of deaths and intracranial haemorrhage after fall ([5]; patients 9, 4 and 12): not related to rasagiline; effect on eye movements ([5]; rasagiline 1 mg/day): No effect; depression during treatment ([5]; rasagiline 1 mg/day, 12 months observation, listed as Rasagiline): effective in reducing or eliminating depression; reversibility of side effects after termination ([5]; three patients with side effects): completely reversible; reduction of the reported deterioration (PSPRS) ([6]; 1 year, vs reported mean yearly increase of 9.7): 33%; safety, gait disturbances and postural stability ([6]; posturographic measurement): safe and effective in reducing gait disturbances and in enhancing postural stability
